Test results taken from PMC3329717 (Journal of Medicinal Chemistry, 2012).

Tests used:
[1] = test system: WEEV replicon
[2] = test system: WEEV replicon; experiment: microbe, parasite or virus in culture; conditions: Western equine encephalitis virus, BSR-T7, read-out: IC50, inhibition of luciferase expression in the WEEV replicon assay
[3] = test system: NSV; format: cell-based, neuroadapted Sindbis virus
[4] = Mouse liver microsome; conditions: Balb-C, liver microsomes, pH 7.5
[5] = test system: WEEV; format: cell-based, western equine encephalitis virus
[6] = test system: NSV; set-up: species or system mice; conditions: mouse, in vivo
[7] = test system: NSV; set-up: species or system mice; conditions: mouse, in vivo; remark: listed apart in the source
[8] = test system: NSV; set-up: species or system mice; conditions: mouse, in vivo; remark: listed apart in the source
[9] = test system: wild-type VEEV; conditions: in vivo; cited from earlier work
[10] = test system: vaccine strain of Venezuelan equine encephalitis virus (VEEV); conditions: mouse, in vivo; cited from earlier work
[11] = test system: NSV; format: cell-based, neuroadapted Sindbis virus; remark: listed apart in the source
[12] = test system: WEEV; format: cell-based, western equine encephalitis virus; remark: listed apart in the source
[13] = Parallel Artificial Membrane Permeability Assay; conditions: PAMPA

Row | Compound | CC50/IC50 (therapeutic index) [1] | IC50 [2] | further results
1 | C[C@H](c1ccc(F)cc1)n1c(C(=O)N2CCC(C(=O)NCc3ccccc3)CC2)cc2sccc21 [Compound 5e, (R)-N-benzyl-1-(4-(1-(4-fluorophenyl)ethyl)-4H-thieno[3,2-b]pyrrole-5-carbonyl)piperidine-4-carboxamide] | >5.4 | 18.4 ± 4.7 µM | –
2 | O=C(NCc1ccccc1)C1CCN(C(=O)c2cc3ccccc3n2Cc2ccc(Cl)cc2)CC1 [Compound 9b, N-benzyl-1-(1-(4-chlorobenzyl)-1H-indole-2-carbonyl)piperidine-4-carboxamide] | >6.5 | 15.5 ± 5.6 µM | NSV titers (virion production, plaque assay) [3]: significantly reduced; half-life at 1 µM [4]: 7.3 ± 3.9 min; WEEV titers (virion production, plaque assay) [5]: significantly reduced
3 | C[C@@H](NC(=O)C1CCN(C(=O)c2cc3ccccc3n2Cc2ccc(Cl)cc2)CC1)c1ccccc1 [Compound 9h, (R)-1-(1-(4-chlorobenzyl)-1H-indole-2-carbonyl)-N-(1-phenylethyl)piperidine-4-carboxamide] | 14 | 6.5 ± 1.5 µM | NSV titers (virion production, plaque assay) [3]: significantly reduced; half-life at 1 µM [4]: 31 ± 7.1 min; WEEV titers (virion production, plaque assay) [5]: significantly reduced; Neuronal injury in hippocampus (proportion of fluorojade-positive neurons) [6]: reduced neuronal injury; Viral titers in brain [7]: viral titers were lower; Viral titers in spinal cord [7]: A similar extent of viral inhibition was also observed; Development of severe hind limb paralysis [8]: conferred benefit against the development of severe hind limb paralysis; Pilot survival assays, dose comparison [8]: the higher concentration was more effective; Survival after lethal NSV infection [8]: significantly protected from lethal NSV infection
4 | COc1ccc(CNC(=O)C2CCN(C(=O)c3cc4ccccc4n3Cc3ccc(Cl)cc3)CC2)cc1 [Compound 9i, 1-(1-(4-chlorobenzyl)-1H-indole-2-carbonyl)-N-(4-methoxybenzyl)piperidine-4-carboxamide] | – | > 50 µM | –
5 | O=C(Nc1ccccc1)C1CCN(C(=O)c2cc3ccccc3n2Cc2ccc(Cl)cc2)CC1 [Compound 9d, 1-(1-(4-chlorobenzyl)-1H-indole-2-carbonyl)-N-phenylpiperidine-4-carboxamide] | – | > 50 µM | –
6 | O=C(NCCc1ccccc1)C1CCN(C(=O)c2cc3ccccc3n2Cc2ccc(Cl)cc2)CC1 [Compound 9e, 1-(1-(4-chlorobenzyl)-1H-indole-2-carbonyl)-N-phenethylpiperidine-4-carboxamide] | 4.1 | 15.2 ± 9.3 µM | –
7 | (−)-carbodine | – | – | Benefit after wild-type VEEV challenge [9]: no benefit; Disease outcome [10]: improved outcome; Lowering of peak CNS viral titers [10]: half-log
8 | C[C@H](NC(=O)C1CCN(C(=O)c2cc3ccccc3n2Cc2ccc(Cl)cc2)CC1)c1ccccc1 [Compound 9g, (S)-1-(1-(4-chlorobenzyl)-1H-indole-2-carbonyl)-N-(1-phenylethyl)piperidine-4-carboxamide] | – | > 100 µM | NSV titers (virion production, plaque assay) [3]: inactive; Increase in cell viability after NSV infection (reduction in CPE) [11]: unable to rescue virus-induced CPE; WEEV titers (virion production, plaque assay) [5]: inactive; Increase in cell viability after WEEV infection (reduction in CPE) [12]: unable to rescue virus-induced CPE
9 | O=C(c1cc2ccccc2n1Cc1ccc(Cl)cc1)N1CCC(C(=O)N2CCCCC2)CC1 [Compound 9k, (1-(4-chlorobenzyl)-1H-indol-2-yl)(4-(piperidine-1-carbonyl)piperidin-1-yl)methanone] | 5.6 | 9.2 ± 2.8 µM | –
10 | O=C(NCc1ccccc1)C1CCCN(C(=O)c2cc3ccccc3n2Cc2ccc(Cl)cc2)C1 (stereo not drawn) [Compound 9c, N-benzyl-1-(1-(4-chlorobenzyl)-1H-indole-2-carbonyl)piperidine-3-carboxamide] | >3.3 | 30.6 ± 7.3 µM | –
11 | C[C@@H](c1ccc(F)cc1)n1c(C(=O)N2CCC(C(=O)NCc3ccccc3)CC2)cc2sccc21 [Compound 5f, (S)-N-benzyl-1-(4-(1-(4-fluorophenyl)ethyl)-4H-thieno[3,2-b]pyrrole-5-carbonyl)piperidine-4-carboxamide] | – | > 100 µM | –
12 | C[C@@H](NC(=O)C1CCN(C(=O)c2cc3sccc3n2Cc2ccc(F)cc2)CC1)c1ccccc1 [Compound 5d, (R)-1-(4-(4-fluorobenzyl)-4H-thieno[3,2-b]pyrrole-5-carbonyl)-N-(1-phenylethyl)piperidine-4-carboxamide] | 11 | 8.3 ± 1.3 µM | –
13 | O=C(NCc1cccnc1)C1CCN(C(=O)c2cc3ccccc3n2Cc2ccc(Cl)cc2)CC1 [Compound 9m, 1-(1-(4-chlorobenzyl)-1H-indole-2-carbonyl)-N-(pyridin-3-ylmethyl)piperidine-4-carboxamide] | >8.7 | 11.4 ± 0.4 µM | –
14 | O=C(NCc1ccccc1)C1CCN(C(=O)c2cc3sccc3n2Cc2ccc(Cl)cc2)CC1 [Compound 5b, N-benzyl-1-(4-(4-chlorobenzyl)-4H-thieno[3,2-b]pyrrole-5-carbonyl)piperidine-4-carboxamide] | >9.9 | 10.1 ± 2.6 µM | NSV titers (virion production, plaque assay) [3]: significantly reduced; half-life at 1 µM [4]: 1.7 ± 1.7 min; WEEV titers (virion production, plaque assay) [5]: significantly reduced; Papp [13]: 251 ×10⁻⁶ cm/s
15 | NC(=O)c1ncn([C@@H]2O[C@H](CO)[C@@H](O)[C@H]2O)n1 [Ribavirin, reference compound] | – | 16 µM | –
16 | O=C(NCc1ccccc1)C1CCN(C(=O)c2cc3ccccc3n2Cc2ccc(F)cc2)CC1 [Compound 9a, N-benzyl-1-(1-(4-fluorobenzyl)-1H-indole-2-carbonyl)piperidine-4-carboxamide] | >6.7 | 14.8 ± 5.8 µM | –
17 | O=C(NCc1ccccc1)C1CCN(C(=O)c2cc3sccc3n2Cc2ccc(F)cc2)CC1 [Compound 5a, N-benzyl-1-(4-(4-fluorobenzyl)-4H-thieno[3,2-b]pyrrole-5-carbonyl)piperidine-4-carboxamide] | >3.9 | 25.4 ± 7.3 µM | –
18 | C[C@H](NC(=O)C1CCN(C(=O)c2cc3sccc3n2Cc2ccc(F)cc2)CC1)c1ccccc1 [Compound 5c, (S)-1-(4-(4-fluorobenzyl)-4H-thieno[3,2-b]pyrrole-5-carbonyl)-N-(1-phenylethyl)piperidine-4-carboxamide] | – | > 100 µM | –
19 | O=C(NCc1ccncc1)C1CCN(C(=O)c2cc3ccccc3n2Cc2ccc(Cl)cc2)CC1 [Compound 9l, 1-(1-(4-chlorobenzyl)-1H-indole-2-carbonyl)-N-(pyridin-4-ylmethyl)piperidine-4-carboxamide] | >14 | 6.8 ± 1.7 µM | –
20 | Cc1ccc(CCNC(=O)C2CCN(C(=O)c3cc4ccccc4n3Cc3ccc(Cl)cc3)CC2)cc1 [Compound 9f, 1-(1-(4-chlorobenzyl)-1H-indole-2-carbonyl)-N-(4-methylphenethyl)piperidine-4-carboxamide] | 14 | 5.5 ± 2.2 µM | –
21 | O=C(NCc1cccc(Cl)c1)C1CCN(C(=O)c2cc3ccccc3n2Cc2ccc(Cl)cc2)CC1 [Compound 9j, N-(3-chlorobenzyl)-1-(1-(4-chlorobenzyl)-1H-indole-2-carbonyl)piperidine-4-carboxamide] | >6.5 | 15.3 ± 9 µM | –
